In one series the target is Glutamate receptor 2 (Homo sapiens, UniProt P42262). Description: Displacement of [3H]-HBT1 from His-tagged GluA2-AMPA receptor LBD (unknown origin) in presence of glutamate by scintillation proximity assay. On the technique in general: Displacement assays read how much labelled ligand stays bound in the presence of the test substance.
A short description of series [1]: 1-Octanol/aqueous buffer partition coefficient, logD of the compound at pH 7.4 by chromatographic method based UV-visible detector. The class given is physicochemical.
Series [2] is described as follows: Metabolic stability in human liver microsomes assessed as clearance at 1 uM incubated for 15 to 30 mins in the presence of NADPH generating system by LC-MS/MS analysis. The format is ADME, Microsome. The conditions noted are these: time 15-30 min, read-out: CLH. (Liver microsomes are a subcellular fraction often used to study metabolism.)
Series [3] is described as follows: Metabolic stability in rat liver microsomes assessed as clearance at 1 uM incubated for 15 to 30 mins in the presence of NADPH generating system by LC-MS/MS analysis. The format is ADME, Microsome. The conditions noted are these: time 15-30 min, read-out: CLH.
Series [4] concerns the target Glutamate receptor ionotropic, NMDA 2C (Homo sapiens, UniProt Q05586+Q14957). Description: Positive allosteric modulator activity at GluN2C NMDA receptor (unknown origin) expressed in CHO cells co-expressing GluN1a in the presence of L-glutamate and glycine by Ca2+ influx assay. The class given is cell-based.
Series [5] addresses Glutamate receptor ionotropic, NMDA 2D (Homo sapiens, UniProt O15399+Q05586). Description: Positive allosteric modulator activity at GluN2D NMDA receptor (unknown origin) expressed in CHO cells co-expressing GluN1a in the presence of L-glutamate and glycine by Ca2+ influx assay. The format is cell-based.
Series [6] in a line: Drug concentration in Sprague-Dawley rat brain at 10 mg/kg, po measured after 0.5 hrs by LC-MS/MS analysis. The class given is ADME, organism-based. The conditions noted are these: read-out: Ct.
Series [7] is described as follows: Drug concentration in Sprague-Dawley rat plasma at 10 mg/kg, po measured after 0.5 hrs by LC-MS/MS analysis. The format is ADME, organism-based.
Series [8] can be described thus: Drug concentration in Sprague-Dawley rat brain at 10 mg/kg, po measured after 2 hrs by LC-MS/MS analysis. The conditions noted are these: read-out: Ct. The format is ADME, organism-based.
A short description of series [9]: Drug concentration in Sprague-Dawley rat plasma at 10 mg/kg, po measured after 2 hrs by LC-MS/MS analysis. The class given is ADME, organism-based.
A short description of series [10]: Drug concentration in Sprague-Dawley rat plasma at 10 mg/kg, po measured after 1 hrs by LC-MS/MS analysis. The class given is ADME, organism-based.
A short description of series [11]: Drug concentration in Sprague-Dawley rat brain at 10 mg/kg, po measured after 1 hrs by LC-MS/MS analysis. The format is ADME, organism-based. The settings on record: read-out: Ct.
Series [12] addresses Glutamate receptor ionotropic, NMDA 2B (Homo sapiens, UniProt Q05586+Q13224). Description: Positive allosteric modulator activity at GluN2B NMDA receptor (unknown origin) expressed in CHO cells co-expressing GluN1a in the presence of L-glutamate and glycine by Ca2+ influx assay. The class given is cell-based.
The target of series [13] is Glutamate receptor ionotropic, NMDA 2A (Homo sapiens, UniProt Q05586+Q12879). As to the kind of experiment: Positive allosteric modulator activity at GluN2A NMDA receptor (unknown origin) expressed in CHO cells co-expressing GluN1a in the presence of L-glutamate and glycine by Ca2+ influx assay. The class given is cell-based.
Glutamate receptor ionotropic, NMDA 2A, sequence (Q12879 whole entry, one chain of several): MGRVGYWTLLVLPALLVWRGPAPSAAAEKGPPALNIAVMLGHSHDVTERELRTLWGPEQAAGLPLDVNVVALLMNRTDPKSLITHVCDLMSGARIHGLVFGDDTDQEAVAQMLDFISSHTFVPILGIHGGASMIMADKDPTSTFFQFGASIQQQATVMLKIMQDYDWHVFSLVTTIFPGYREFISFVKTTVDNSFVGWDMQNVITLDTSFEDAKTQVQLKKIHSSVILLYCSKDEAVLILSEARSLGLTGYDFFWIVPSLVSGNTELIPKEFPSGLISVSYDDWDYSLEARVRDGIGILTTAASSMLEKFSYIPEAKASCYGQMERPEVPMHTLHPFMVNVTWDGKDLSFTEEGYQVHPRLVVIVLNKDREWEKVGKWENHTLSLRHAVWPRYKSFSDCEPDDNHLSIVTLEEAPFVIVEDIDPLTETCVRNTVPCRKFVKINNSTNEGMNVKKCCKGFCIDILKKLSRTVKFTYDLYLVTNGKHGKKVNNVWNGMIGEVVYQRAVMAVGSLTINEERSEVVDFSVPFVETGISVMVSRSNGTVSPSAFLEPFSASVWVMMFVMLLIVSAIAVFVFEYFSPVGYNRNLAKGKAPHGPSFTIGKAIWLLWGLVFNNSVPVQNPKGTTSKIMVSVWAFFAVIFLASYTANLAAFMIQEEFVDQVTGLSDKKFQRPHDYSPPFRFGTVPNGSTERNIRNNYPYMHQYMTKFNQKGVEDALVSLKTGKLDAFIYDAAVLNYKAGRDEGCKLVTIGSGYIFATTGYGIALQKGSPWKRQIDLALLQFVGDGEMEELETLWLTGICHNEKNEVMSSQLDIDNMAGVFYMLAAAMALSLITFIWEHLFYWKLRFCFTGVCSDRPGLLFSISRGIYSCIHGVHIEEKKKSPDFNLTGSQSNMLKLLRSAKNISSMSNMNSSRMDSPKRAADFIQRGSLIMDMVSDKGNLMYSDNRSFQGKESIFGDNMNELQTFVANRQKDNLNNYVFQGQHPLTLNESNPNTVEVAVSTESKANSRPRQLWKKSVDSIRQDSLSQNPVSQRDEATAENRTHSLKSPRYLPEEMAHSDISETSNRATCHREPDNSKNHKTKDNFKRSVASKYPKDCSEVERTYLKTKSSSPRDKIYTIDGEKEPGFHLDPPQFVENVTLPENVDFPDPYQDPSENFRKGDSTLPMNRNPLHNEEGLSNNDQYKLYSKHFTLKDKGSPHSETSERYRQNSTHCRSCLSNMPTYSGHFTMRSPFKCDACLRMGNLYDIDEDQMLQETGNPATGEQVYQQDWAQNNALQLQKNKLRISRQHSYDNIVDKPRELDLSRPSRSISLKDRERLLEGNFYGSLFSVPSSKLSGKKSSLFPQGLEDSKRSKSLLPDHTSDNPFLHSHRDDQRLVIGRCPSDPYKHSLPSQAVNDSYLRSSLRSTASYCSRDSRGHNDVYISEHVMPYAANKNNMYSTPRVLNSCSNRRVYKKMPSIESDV

Glutamate receptor 2, sequence (P42262 whole entry, the tested form may be a part): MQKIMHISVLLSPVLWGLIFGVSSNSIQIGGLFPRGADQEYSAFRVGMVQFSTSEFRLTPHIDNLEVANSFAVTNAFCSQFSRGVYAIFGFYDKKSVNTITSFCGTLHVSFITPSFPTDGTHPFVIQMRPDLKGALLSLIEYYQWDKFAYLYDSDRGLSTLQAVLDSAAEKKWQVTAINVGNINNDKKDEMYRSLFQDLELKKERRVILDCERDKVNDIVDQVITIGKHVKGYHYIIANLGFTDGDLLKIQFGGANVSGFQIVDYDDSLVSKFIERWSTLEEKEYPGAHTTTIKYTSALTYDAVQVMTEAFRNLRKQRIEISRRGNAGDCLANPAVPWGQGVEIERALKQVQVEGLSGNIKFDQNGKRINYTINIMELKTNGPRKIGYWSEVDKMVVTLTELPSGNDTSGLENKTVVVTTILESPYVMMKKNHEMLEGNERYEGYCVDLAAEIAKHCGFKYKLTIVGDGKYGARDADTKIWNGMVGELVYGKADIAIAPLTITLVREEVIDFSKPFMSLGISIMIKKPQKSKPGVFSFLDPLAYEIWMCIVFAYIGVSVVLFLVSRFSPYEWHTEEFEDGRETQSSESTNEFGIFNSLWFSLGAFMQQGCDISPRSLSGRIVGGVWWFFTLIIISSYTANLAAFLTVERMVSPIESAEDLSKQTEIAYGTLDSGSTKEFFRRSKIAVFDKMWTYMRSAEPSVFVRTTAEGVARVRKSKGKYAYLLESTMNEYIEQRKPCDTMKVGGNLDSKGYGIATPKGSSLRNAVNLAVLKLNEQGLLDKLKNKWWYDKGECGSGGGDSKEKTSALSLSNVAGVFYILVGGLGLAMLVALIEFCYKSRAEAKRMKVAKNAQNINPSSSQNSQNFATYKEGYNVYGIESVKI
Glutamate receptor ionotropic, NMDA 2D, sequence (O15399 whole entry, one chain of several): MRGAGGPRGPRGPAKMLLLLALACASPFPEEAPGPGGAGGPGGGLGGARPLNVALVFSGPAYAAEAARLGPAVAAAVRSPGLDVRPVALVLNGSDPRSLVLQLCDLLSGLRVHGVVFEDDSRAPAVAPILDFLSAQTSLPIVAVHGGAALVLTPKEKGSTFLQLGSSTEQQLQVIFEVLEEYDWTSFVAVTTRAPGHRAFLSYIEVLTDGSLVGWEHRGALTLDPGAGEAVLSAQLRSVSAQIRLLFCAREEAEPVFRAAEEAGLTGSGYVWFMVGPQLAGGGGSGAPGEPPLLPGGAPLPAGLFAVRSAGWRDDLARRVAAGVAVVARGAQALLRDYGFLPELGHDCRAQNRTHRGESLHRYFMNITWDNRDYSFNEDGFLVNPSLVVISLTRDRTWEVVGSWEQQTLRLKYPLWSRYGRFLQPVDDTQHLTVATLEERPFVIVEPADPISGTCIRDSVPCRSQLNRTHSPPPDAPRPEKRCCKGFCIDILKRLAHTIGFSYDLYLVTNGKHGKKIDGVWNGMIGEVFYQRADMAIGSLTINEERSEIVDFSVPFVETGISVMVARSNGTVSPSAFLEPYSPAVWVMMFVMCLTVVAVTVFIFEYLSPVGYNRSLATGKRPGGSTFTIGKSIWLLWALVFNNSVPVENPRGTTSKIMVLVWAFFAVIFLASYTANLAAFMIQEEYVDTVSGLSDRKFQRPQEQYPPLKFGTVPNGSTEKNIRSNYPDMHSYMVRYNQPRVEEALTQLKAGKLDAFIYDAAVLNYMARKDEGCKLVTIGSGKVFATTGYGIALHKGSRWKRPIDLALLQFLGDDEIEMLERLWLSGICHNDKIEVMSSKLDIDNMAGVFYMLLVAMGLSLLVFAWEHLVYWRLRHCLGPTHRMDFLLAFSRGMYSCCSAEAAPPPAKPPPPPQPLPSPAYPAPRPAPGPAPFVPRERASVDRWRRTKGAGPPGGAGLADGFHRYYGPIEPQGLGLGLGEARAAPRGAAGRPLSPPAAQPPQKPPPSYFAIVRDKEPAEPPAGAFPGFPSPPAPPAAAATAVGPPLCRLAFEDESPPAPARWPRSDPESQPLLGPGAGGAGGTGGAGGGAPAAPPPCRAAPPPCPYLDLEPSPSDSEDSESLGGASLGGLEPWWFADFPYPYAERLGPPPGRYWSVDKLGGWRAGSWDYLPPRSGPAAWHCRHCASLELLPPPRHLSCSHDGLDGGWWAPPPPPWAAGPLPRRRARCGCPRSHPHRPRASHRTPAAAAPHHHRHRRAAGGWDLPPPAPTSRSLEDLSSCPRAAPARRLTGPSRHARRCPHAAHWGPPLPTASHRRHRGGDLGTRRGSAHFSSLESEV
Glutamate receptor ionotropic, NMDA 2C, sequence (Q14957 whole entry, one chain of several): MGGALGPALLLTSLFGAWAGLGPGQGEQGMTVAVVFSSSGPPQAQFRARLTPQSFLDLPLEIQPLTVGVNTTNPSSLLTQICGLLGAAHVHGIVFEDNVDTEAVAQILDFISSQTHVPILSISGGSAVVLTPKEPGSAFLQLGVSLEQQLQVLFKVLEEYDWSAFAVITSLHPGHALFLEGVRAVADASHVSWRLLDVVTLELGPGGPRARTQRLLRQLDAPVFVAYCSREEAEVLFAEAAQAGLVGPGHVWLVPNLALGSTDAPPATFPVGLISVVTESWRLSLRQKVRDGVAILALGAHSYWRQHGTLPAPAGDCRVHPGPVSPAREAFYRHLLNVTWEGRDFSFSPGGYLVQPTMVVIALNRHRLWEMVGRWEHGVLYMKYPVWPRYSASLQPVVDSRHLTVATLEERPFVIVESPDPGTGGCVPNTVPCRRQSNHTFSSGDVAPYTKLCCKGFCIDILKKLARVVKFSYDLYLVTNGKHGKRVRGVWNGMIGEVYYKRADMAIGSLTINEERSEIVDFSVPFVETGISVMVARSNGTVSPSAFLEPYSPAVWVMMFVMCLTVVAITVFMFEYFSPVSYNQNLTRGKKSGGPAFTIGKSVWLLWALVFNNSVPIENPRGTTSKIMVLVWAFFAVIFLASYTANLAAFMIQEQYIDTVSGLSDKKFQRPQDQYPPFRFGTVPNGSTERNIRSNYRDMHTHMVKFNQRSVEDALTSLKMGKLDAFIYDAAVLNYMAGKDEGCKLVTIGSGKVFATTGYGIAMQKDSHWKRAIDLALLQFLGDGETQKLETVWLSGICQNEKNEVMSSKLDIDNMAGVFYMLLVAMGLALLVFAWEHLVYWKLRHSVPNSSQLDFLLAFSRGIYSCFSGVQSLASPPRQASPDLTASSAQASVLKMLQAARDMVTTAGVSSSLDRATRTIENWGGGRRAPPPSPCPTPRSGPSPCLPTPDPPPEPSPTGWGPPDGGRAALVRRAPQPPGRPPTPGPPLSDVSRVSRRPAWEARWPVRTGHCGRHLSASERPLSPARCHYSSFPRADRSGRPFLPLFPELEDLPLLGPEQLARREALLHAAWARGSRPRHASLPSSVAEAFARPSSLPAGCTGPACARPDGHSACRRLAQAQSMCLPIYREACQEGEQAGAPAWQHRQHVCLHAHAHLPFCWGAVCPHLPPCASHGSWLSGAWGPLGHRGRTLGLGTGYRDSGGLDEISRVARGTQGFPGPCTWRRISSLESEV

On to `CCN(Cc1cc(C)n(C[C@H]2C[C@@H]2C#N)c(=O)c1)c1ccc(F)cc1`, for which the IC50 at Glutamate receptor 2 is 11 µM. This compound came in with a chromatographic logD in series [1] of 2.4. Moreover, the microsomal CLint at 1 µM was 48 µL/min/mg in [2] and above 768 µL/min/mg in [3].
Consider `Cc1cc(Cn2nc(Br)cc2Cl)cc(=O)n1C[C@H]1C[C@@H]1C#N`, for which the EC50 in [4] is 1.9 µM; in [5] it was 5.1 µM; in series [12] it was above 30 µM. Further, the concentration at 0.5 h in series [6] is 262 ng/g; in series [7], 926 ng/mL. On Glutamate receptor 2, the IC50 was above 30 µM. The concentration at 2 h in series [8] amounted to 71 ng/g; in series [9] it was 362 ng/mL. In series [1], this compound showed a chromatographic logD of 1.6. The microsomal CLint at 1 µM amounted to 28 µL/min/mg in series [2] and 14 µL/min/mg in [3]. In addition, the concentration at 1 h came out at 590 ng/mL in series [10] and 111 ng/g in series [11].
For the compound `CCN(Cc1cc(C)n(Cc2ccccc2)c(=O)c1)c1ccc(F)cc1`, the IC50 on Glutamate receptor 2 stood at 5.5 µM. In addition, the EC50 in [13] was above 30 µM. For the same compound, the chromatographic logD in [1] stood at 3.5.
Take `Cc1cc(Cc2cccc(Br)c2)cc(=O)n1C[C@H]1C[C@@H]1C#N`: on Glutamate receptor 2, the 50% inhibitory concentration (IC50) was above 30 µM. The chromatographic logD in series [1] was found to be 2.5. Also, the microsomal CLint at 1 µM amounted to 24 µL/min/mg in [2] and 72 µL/min/mg in series [3].
Consider `CCN(Cc1cc(C)n(CC2CC2)c(=O)c1)c1ccc(F)cc1`, for which the IC50 on Glutamate receptor 2 came out at 9.9 µM. Besides, the chromatographic logD in series [1] was 3.2.
Take `Cc1cc(Cn2nc(Cl)cc2Cl)cc(=O)n1C[C@H]1C[C@@H]1C#N`: the half-maximal inhibitory concentration (IC50) at Glutamate receptor 2 is above 30 µM. For the same compound, the chromatographic logD in series [1] was found to be 1.6. Moreover, the microsomal CLint at 1 µM in series [2] was 12 µL/min/mg; in series [3] it was 22 µL/min/mg.
Regarding `CCCc1cc(CN(CC)c2ccc(F)cc2)cc(=O)n1CC1CC1`, the 50% inhibitory concentration (IC50) at Glutamate receptor 2 was above 30 µM. Further, the EC50 in series [13] was determined as 12 µM. This compound came in with a chromatographic logD in [1] of 4.
The corresponding values for `CCN(Cc1cc(C)n(CC2CCC2)c(=O)c1)c1ccc(F)cc1` are 1.2 µM, 23 µM and 3.6.
Consider `Cc1cc(Cn2nc(C(F)(F)F)cc2Cl)cc(=O)n1C[C@H]1C[C@@H]1C#N`, for which the IC50 on Glutamate receptor 2 was 21 µM. The compound further registered a chromatographic logD in series [1] of 1.8. Moreover, the microsomal CLint at 1 µM in series [2] was determined as 2 µL/min/mg; in series [3] it was 22 µL/min/mg.
For `CCc1cc(CN(CC)c2ccc(F)cc2)cc(=O)n1CC1CC1`, the EC50 in [13] came to 13 µM. In series [1], the chromatographic logD was 3.6.
In the case of `CCN(Cc1cc(C)n(CCCC#N)c(=O)c1)c1ccc(F)cc1`, on Glutamate receptor 2, the IC50 was 4.3 µM. The EC50 in series [13] was above 30 µM. The compound also had a chromatographic logD in series [1] of 2.4.
As to `CCN(Cc1cc(C)n(C[C@@H]2C[C@H]2C#N)c(=O)c1)c1ccc(F)cc1`, the IC50 at Glutamate receptor 2 was found to be 16 µM. Besides, the chromatographic logD in [1] stood at 2.4.
For `CCN(Cc1cc(C)n(CC2(C#N)CC2)c(=O)c1)c1ccc(F)cc1`, the IC50 at Glutamate receptor 2 was 2.3 µM. Further, the EC50 in [13] was above 30 µM. This compound also yielded a chromatographic logD in [1] of 2.5.
As for `Cc1cc(Cc2cccc(Cl)c2)cc(=O)n1C[C@H]1C[C@@H]1C#N`, the IC50 on Glutamate receptor 2 was above 30 µM. Further, in series [1], the chromatographic logD came to 2.3. Moreover, the microsomal CLint at 1 µM in series [3] worked out at 75 µL/min/mg.
As to `Cc1cccc(Cc2cc(C)n(C[C@H]3C[C@@H]3C#N)c(=O)c2)c1`, the IC50 at Glutamate receptor 2 is above 30 µM. The EC50 in series [13] was above 30 µM. The same compound had a chromatographic logD in series [1] of 2.4. Also, the microsomal CLint at 1 µM in series [2] stood at 15 µL/min/mg; in series [3], 26 µL/min/mg.
Turning to `CCN(Cc1cc(=O)n(CC2CC2)c(C)n1)c1ccc(F)cc1`, the IC50 on Glutamate receptor 2 was 2.3 µM. Moreover, the EC50 in [13] is 13 µM. In series [1], this compound had a chromatographic logD of 2.9.
`Cc1cc(Cn2nc(C(F)F)cc2Cl)cc(=O)n1C[C@H]1C[C@@H]1C#N`: the IC50 on Glutamate receptor 2 is above 30 µM. The chromatographic logD in series [1] stood at 1.4.
Consider `CCN(Cc1ccn(CC2CC2)c(=O)c1)c1ccc(F)cc1`, for which the IC50 at Glutamate receptor 2 stood at 0.75 µM. The compound also showed a chromatographic logD in series [1] of 2.8.
For `CCN(Cc1cc(C)n(C[C@@H]2C[C@H]2C#N)c(=O)c1)c1ccc(F)cc1` (racemic), at Glutamate receptor 2, the IC50 came to 10 µM.

Usually IC50 stands for the concentration at which inhibition is half-maximal. What is called chromatographic logD is a lipophilicity value derived from retention on a column. Read a low chromatographic logD as a more hydrophilic compound. As usually defined, the EC50 is the concentration needed to bring the measured effect to its halfway point.

Source of the values: ChEMBL document CHEMBL5241126, “Design and synthesis of 6-methylpyridin-2-one derivatives as novel and potent GluN2A positive allosteric modulators for the treatment of cognitive impairment” (Bioorg Med Chem, 2023).
